This is an account of results in the Deep4Chem optical property database.

The structures appear in SMILES notation.

A short description of the first data set: solvent given as SMILES. The note with it: in C1CCCCC1.
For the compound `COc1ccc2n1[B-](F)(F)[N+]1=C(c3ccccc3)C=CC1=C2c1ccc(C)cc1`, the emission maximum is listed as 553 nm.
As for `O=S1(=O)c2ccccc2-c2cc(-c3c4ccccc4cc4ccccc34)ccc21`, the emission maximum stood at 403.35 nm.
`CC(C)(C)c1ccc2oc(-c3ccc(-c4nc5cc(C(C)(C)C)ccc5o4)s3)nc2c1` showed an emission maximum of 426 nm.
Still for that read-out and setting: the same measure for `C/C(=C\c1ccc(C)cc1)c1nc2ccccc2s1`: 390 nm.

Staying with this data set, now noted: in C1CCOC1.
`Cc1cc(C)c(B(c2ccc(-c3nc4c5ccccc5c5ccccc5c4[nH]3)cc2)c2c(C)cc(C)cc2C)c(C)c1`: the emission maximum is 456 nm.
For `COc1ccc2n1[B-](F)(F)[N+]1=C(c3ccccc3)C=CC1=C2c1ccc(C)cc1`, the emission maximum was 555 nm.
The same measure, in the same setting: then `Cc1cc(C)c([B-]2(c3c(C)cc(C)cc3C)[O+]=P(c3ccccc3)(c3ccccc3)c3cc(-c4ccc(C(C)(C)C)cc4)sc3-c3sc(-c4ccc(C(C)(C)C)cc4)cc32)c(C)c1`, with 498 nm.
On the same count and under the same terms, then `CCCCC1(c2ccc(OC)cc2)Nc2ccccc2N=C1c1ccc(OC)cc1` (configuration not stated), with 513 nm; and `CC(C)(C)c1ccc2oc(-c3ccc(-c4nc5cc(C(C)(C)C)ccc5o4)s3)nc2c1`, with 432 nm.
On the same count and under the same terms, the same measure for `c1cc2ccc1-c1ccc(cc1)-c1ccc([se]1)-c1ccc(cc1)-c1ccc(cc1)-c1ccc([se]1)-c1ccc(cc1)-c1ccc(cc1)-c1ccc-2[se]1`: 560 nm.

The same data set, now with this note: in C1COCCO1.
`CCN(CC)c1ccc2cc(/C=C/C(O)=C3\CC/C(=C\c4cc5ccc(N(CC)CC)cc5oc4=O)C3=O)c(=O)oc2c1` registered an emission maximum of 581 nm.
In turn, `COc1ccc2n1[B-](F)(F)[N+]1=C(c3ccccc3)C=CC1=C2c1ccc(C)cc1` came in with an emission maximum of 556 nm.

Staying with this data set, now noted: in CC1CCCCC1.
Take `CC(C)(C)c1ccc2oc(-c3ccc(-c4nc5cc(C(C)(C)C)ccc5o4)s3)nc2c1`: the emission maximum was 426 nm.

The same data set, now with this note: in CC#N.
The compound `CCN(CC)c1ccc2cc(/C=C/C(O)=C3\CC/C(=C\c4cc5ccc(N(CC)CC)cc5oc4=O)C3=O)c(=O)oc2c1` had an emission maximum of 637 nm.
Still for that read-out and setting: the same measure for `CCCCC1(c2ccc(OC)cc2)Nc2ccccc2N=C1c1ccc(OC)cc1` (configuration not stated): 522 nm; for `O=S1(=O)c2ccccc2-c2cc(-c3c4ccccc4cc4ccccc34)ccc21`: 514.77 nm.
Still for that read-out and setting: then `CC(C)(C)c1ccc2oc(-c3ccc(-c4nc5cc(C(C)(C)C)ccc5o4)s3)nc2c1`, with 432 nm; and `CCN(CC)c1ccc(/C=N/C(C#N)=C(C#N)/N=C/c2ccc(N(CC)CC)cc2O)c(O)c1`, with 609 nm.
As for `CCCSC1=[N+]2C(=C(c3ccccc3)c3ccc(SCCC)n3[B-]2(F)F)C=C1SC#N`, the emission maximum amounted to 584 nm.
`N#CSC1=CC2=C(c3ccccc3)c3ccc(N4CCOCC4)n3[B-](F)(F)[N+]2=C1N1CCOCC1` showed an emission maximum of 605 nm.
Still for that read-out and setting: the same measure for `CC1(C)[C@@H]2CC[C@]1(C)c1nc3cc(-c4cccs4)ccc3nc12`: 418 nm.

Staying with this data set, now noted: in CC(C)=O.
Consider `Cc1cc(C)c(B(c2ccc(-c3nc4c5ccccc5c5ccccc5c4[nH]3)cc2)c2c(C)cc(C)cc2C)c(C)c1`, for which the emission maximum is reported as 469 nm.
On the same count and under the same terms, the same measure for `CCN(CC)c1ccc2cc(/C=C/C(O)=C3\CC/C(=C\c4cc5ccc(N(CC)CC)cc5oc4=O)C3=O)c(=O)oc2c1`: 613 nm.

The same data set, now with this note: in CCCCCC.
With `CC(C)[Si](C#Cc1c2nc3ccccc3nc2c(C#C[Si](C(C)C)(C(C)C)C(C)C)c2nc3c(ccc4ccccc43)nc12)(C(C)C)C(C)C`, the emission maximum worked out at 656 nm.
In turn, `CCCCC1(c2ccc(OC)cc2)Nc2ccccc2N=C1c1ccc(OC)cc1` (configuration not stated) showed an emission maximum of 485 nm.
In turn, `CCCSC1=[N+]2C(=C(c3ccccc3)c3ccc(SCCC)n3[B-]2(F)F)C=C1SC#N` gave an emission maximum of 597 nm.
As for `N#CSC1=CC2=C(c3ccccc3)c3ccc(N4CCOCC4)n3[B-](F)(F)[N+]2=C1N1CCOCC1`, the emission maximum is listed as 599 nm.
Same read-out and setting: the same measure for `CC1(C)[C@@H]2CC[C@]1(C)c1nc3cc(-c4cccs4)ccc3nc12`: 402 nm.

The data set is the same for the next values; noted with them: in CCCCO.
For the compound `CC(C)(C)c1ccc2oc(-c3ccc(-c4nc5cc(C(C)(C)C)ccc5o4)s3)nc2c1`, the emission maximum is on record as 434 nm.
Still for that read-out and setting: the same measure for `CC1(C)[C@@H]2CC[C@]1(C)c1nc3cc(-c4cccs4)ccc3nc12`: 442 nm.

Still in this data set, the particulars now being: in CCO.
`CN(C)c1ccc2c(C(=O)NCc3ccccc3)cc(C(=O)[O-])nc2c1` registered an emission maximum of 603 nm.
On the same count and under the same terms, then `CC(C)(C)c1ccc2oc(-c3ccc(-c4nc5cc(C(C)(C)C)ccc5o4)s3)nc2c1`, with 434 nm; and `CN(C)c1ccc2c(-c3cc(N)ccc3C(=O)[O-])c3ccc(=[N+](C)C)cc-3oc2c1`, with 567 nm.
The compound `CC1(C)[C@@H]2CC[C@]1(C)c1nc3cc(-c4cccs4)ccc3nc12` came in with an emission maximum of 446 nm.

The same data set, now with this note: in CCOC(C)=O.
`CCN(CC)c1ccc2cc(/C=C/C(O)=C3\CC/C(=C\c4cc5ccc(N(CC)CC)cc5oc4=O)C3=O)c(=O)oc2c1` yielded an emission maximum of 589 nm.
Same read-out and setting: then `COc1ccc2n1[B-](F)(F)[N+]1=C(c3ccccc3)C=CC1=C2c1ccc(C)cc1`, with 552 nm; and `CCCSC1=[N+]2C(=C(c3ccccc3)c3ccc(SCCC)n3[B-]2(F)F)C=C1SC#N`, with 588 nm.
Take `N#CSC1=CC2=C(c3ccccc3)c3ccc(N4CCOCC4)n3[B-](F)(F)[N+]2=C1N1CCOCC1`: the emission maximum was 604 nm.
Same read-out and setting: the same measure for `CC1(C)[C@@H]2CC[C@]1(C)c1nc3cc(-c4cccs4)ccc3nc12`: 406 nm.

Staying with this data set, now noted: in CN(C)C=O.
In turn, `CCN(CC)c1ccc2cc(/C=C/C(O)=C3\CC/C(=C\c4cc5ccc(N(CC)CC)cc5oc4=O)C3=O)c(=O)oc2c1` returned an emission maximum of 638 nm.
Regarding `Cc1ccc2nc(-c3cccc4nc(C)[nH]c(=O)c34)oc2c1`, the emission maximum worked out at 410 nm.
The same measure, in the same setting: the same measure for `CCCCC1(c2ccc(OC)cc2)Nc2ccccc2N=C1c1ccc(OC)cc1` (configuration not stated): 525 nm.
